Assay results: paper PMC9571063 (Molecules, 2022)
Values joined by “and” are separate entries in the source; they are usually repeats but may differ in a detail not shown here. Equal entries are not always repeated. Structures can show the parent of a compound that is named as a salt. Where two headings read alike, the source gives them in different places.

Legend:
[1] = tested on: Human skin fibroblasts; assay: cytotoxic assay, nuclei count (Hoechst, HCS); type: cell-based; details: summary of Table S2
[2] = molecular target: T1, HsCLK2 (Homo sapiens, UniProt P49760); assay: kinase inhibition study by Eurofins; type: biochemical; details: duplicate
T1 construct: purchased Eurofins (contract assay)
T1 sequence (P49760 whole entry): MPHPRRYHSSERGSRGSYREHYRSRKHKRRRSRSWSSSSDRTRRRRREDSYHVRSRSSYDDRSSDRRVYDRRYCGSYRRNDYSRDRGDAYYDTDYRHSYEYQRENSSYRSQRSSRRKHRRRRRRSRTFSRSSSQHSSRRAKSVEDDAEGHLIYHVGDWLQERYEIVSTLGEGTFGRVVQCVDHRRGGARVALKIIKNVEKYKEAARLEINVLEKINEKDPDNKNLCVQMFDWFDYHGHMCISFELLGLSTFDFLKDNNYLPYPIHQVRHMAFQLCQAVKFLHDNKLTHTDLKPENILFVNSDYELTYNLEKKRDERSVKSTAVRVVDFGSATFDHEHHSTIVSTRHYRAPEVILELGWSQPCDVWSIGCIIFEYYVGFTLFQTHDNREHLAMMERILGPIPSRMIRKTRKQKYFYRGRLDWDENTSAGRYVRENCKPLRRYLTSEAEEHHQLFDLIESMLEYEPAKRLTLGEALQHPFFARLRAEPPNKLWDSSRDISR
Protocol: (§1) Several inhibition studies for human kinases (HsCLK2, HsCLK3, HsCLK4), as well as the KINOMEscan^SM Assaywere performed by the Eurofins company, following protocols reported on their website.

[3] = molecular target: T2, HsCLK4 (Homo sapiens, UniProt Q9HAZ1); assay: kinase inhibition study by Eurofins; type: biochemical
T2 construct: purchased Eurofins (contract assay)
T2 sequence (Q9HAZ1 whole entry): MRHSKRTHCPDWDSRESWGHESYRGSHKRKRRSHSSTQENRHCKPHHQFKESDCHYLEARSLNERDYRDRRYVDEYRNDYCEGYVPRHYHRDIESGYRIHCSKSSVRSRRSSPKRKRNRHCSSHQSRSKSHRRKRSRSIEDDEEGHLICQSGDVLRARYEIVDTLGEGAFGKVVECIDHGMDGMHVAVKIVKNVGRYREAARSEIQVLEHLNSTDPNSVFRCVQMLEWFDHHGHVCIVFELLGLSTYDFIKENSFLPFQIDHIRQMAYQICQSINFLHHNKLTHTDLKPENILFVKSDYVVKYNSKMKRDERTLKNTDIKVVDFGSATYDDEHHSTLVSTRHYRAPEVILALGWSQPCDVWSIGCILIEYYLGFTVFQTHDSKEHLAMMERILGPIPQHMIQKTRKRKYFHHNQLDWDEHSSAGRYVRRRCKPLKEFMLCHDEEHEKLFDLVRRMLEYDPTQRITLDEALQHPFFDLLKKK
Protocol: as §1

[4] = molecular target: T3, HsCLK3 (Homo sapiens, UniProt P49761); assay: kinase inhibition study by Eurofins; type: biochemical; details: duplicate
T3 construct: purchased Eurofins (contract assay)
T3 sequence (P49761 whole entry): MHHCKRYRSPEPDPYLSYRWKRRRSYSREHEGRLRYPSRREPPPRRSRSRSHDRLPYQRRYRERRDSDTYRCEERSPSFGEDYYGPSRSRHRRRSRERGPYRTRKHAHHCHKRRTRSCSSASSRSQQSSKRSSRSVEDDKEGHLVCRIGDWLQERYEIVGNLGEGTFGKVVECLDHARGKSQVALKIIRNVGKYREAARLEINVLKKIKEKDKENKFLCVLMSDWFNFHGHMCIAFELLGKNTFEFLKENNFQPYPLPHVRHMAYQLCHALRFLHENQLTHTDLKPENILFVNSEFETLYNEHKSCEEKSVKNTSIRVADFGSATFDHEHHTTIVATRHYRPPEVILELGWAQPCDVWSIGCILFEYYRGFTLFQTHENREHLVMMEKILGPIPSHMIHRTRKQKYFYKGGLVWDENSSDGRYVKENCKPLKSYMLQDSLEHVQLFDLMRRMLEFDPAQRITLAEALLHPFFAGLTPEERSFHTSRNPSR
Protocol: as §1

[5] = molecular target: T4, Hs_HASPIN (Homo sapiens, UniProt Q8TF76); assay: ADP-Glo kinase assay, primary screen; type: biochemical; details: n=2, read-out: % of residual activity Hs_HASPIN
T4 construct: host or cells: bacteria
T4 sequence (Q8TF76 1-798): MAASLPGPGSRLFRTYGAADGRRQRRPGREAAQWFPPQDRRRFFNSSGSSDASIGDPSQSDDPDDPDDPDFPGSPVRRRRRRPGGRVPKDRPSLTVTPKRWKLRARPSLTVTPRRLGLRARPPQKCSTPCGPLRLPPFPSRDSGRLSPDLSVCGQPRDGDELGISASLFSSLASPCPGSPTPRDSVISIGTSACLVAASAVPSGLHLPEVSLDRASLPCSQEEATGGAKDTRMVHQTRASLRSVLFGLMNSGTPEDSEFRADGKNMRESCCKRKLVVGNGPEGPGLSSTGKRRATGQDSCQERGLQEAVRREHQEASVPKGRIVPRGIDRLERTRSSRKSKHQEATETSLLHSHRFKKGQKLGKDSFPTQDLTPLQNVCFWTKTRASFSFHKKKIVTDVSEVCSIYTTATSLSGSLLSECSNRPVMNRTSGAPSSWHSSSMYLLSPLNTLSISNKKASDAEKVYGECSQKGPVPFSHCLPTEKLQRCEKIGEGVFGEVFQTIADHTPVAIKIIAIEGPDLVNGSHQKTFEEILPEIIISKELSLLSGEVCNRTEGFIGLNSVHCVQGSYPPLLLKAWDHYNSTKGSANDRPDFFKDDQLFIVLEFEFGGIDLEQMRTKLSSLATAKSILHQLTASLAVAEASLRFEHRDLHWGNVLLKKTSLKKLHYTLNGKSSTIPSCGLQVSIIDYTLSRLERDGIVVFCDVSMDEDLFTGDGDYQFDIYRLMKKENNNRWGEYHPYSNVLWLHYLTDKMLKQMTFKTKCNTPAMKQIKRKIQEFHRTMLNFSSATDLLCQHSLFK

[6] = molecular target: T5, Hs_GSK3β (Homo sapiens, UniProt P49841); assay: ADP-Glo kinase assay, primary screen; type: biochemical; details: n=2, read-out: % of residual activity Hs_GSK3β
T5 construct: host or cells: Sf9 insect cells (baculovirus)
T5 sequence (P49841 whole entry): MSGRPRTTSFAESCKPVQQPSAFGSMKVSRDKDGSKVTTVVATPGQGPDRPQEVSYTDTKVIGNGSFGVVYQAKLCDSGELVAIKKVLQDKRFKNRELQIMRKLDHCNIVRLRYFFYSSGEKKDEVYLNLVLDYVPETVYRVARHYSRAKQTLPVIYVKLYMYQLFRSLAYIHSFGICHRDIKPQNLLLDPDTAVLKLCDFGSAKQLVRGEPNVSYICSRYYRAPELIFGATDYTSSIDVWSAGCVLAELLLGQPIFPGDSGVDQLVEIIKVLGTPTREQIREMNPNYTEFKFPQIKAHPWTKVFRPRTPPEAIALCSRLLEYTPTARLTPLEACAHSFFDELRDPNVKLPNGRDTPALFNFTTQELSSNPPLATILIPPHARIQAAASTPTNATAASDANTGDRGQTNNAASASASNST

[7] = molecular target: T6, TGFBR2 (Homo sapiens, UniProt P37173); assay: KINOMEscan; type: binding; details: read-out: Percent Control
T6 construct: purchased Eurofins DiscoverX KINOMEscan (scanMAX 468)
T6 sequence (P37173 23-567): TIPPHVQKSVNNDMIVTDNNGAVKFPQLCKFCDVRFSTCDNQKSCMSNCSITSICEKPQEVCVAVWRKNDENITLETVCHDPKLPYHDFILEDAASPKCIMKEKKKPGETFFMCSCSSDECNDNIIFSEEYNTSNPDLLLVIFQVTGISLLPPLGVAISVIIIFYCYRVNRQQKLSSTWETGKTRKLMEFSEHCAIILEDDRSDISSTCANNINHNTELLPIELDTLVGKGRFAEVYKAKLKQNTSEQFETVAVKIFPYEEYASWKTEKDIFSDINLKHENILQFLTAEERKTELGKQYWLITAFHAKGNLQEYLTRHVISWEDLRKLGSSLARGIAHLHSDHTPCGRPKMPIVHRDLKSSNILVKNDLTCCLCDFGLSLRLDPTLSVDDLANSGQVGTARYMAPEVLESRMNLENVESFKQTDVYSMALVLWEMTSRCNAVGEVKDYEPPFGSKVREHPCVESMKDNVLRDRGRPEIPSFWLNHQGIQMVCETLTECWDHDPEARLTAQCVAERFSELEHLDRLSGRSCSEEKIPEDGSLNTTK

[8] = molecular target: T7, RSK3(Kin.Dom.2-C-terminal) (Homo sapiens, UniProt Q15349); assay: KINOMEscan; type: binding; details: read-out: Percent Control
T7 construct: RSK3(Kin.Dom.2-C-terminal); purchased Eurofins DiscoverX KINOMEscan (scanMAX 468)
T7 sequence (Q15349 389-733 limits assumed): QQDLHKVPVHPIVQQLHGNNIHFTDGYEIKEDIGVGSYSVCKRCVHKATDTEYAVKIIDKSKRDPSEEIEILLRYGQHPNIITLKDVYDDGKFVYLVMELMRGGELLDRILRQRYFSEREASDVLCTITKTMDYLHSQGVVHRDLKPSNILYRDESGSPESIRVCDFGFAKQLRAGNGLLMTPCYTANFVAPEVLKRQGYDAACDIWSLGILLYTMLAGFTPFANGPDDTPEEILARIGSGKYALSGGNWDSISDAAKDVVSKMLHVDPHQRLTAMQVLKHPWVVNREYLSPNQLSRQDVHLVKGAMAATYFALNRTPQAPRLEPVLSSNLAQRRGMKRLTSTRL

[9] = molecular target: T8, GCN2(Kin.Dom.2,S808G) (Homo sapiens, UniProt Q9P2K8, S808G); assay: KINOMEscan; type: binding; details: read-out: Percent Control
T8 construct: GCN2(Kin.Dom.2,S808G); purchased Eurofins DiscoverX KINOMEscan (scanMAX 468)
T8 sequence (Q9P2K8 590-1001 S808G limits assumed): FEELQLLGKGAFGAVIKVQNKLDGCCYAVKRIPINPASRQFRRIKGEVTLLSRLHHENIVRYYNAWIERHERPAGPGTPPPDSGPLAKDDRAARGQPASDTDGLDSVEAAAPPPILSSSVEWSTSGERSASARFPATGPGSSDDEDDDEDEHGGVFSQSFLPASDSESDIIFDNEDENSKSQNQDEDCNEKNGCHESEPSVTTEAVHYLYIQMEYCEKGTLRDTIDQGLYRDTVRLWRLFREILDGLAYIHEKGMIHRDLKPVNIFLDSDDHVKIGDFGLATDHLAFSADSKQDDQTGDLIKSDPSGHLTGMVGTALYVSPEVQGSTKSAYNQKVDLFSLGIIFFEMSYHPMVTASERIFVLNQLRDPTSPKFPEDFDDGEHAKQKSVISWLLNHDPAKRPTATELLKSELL

[10] = molecular target: T9, CDK2 (Homo sapiens, UniProt P24941); assay: KINOMEscan; type: binding; details: read-out: Percent Control
T9 construct: purchased Eurofins DiscoverX KINOMEscan (scanMAX 468)

[11] = molecular target: T10, MEK2 (Homo sapiens, UniProt P36507); assay: KINOMEscan; type: binding; details: read-out: Percent Control
T10 construct: purchased Eurofins DiscoverX KINOMEscan (scanMAX 468)

[12] = molecular target: T11, PRKR (Homo sapiens, UniProt P19525); assay: KINOMEscan; type: binding; details: read-out: Percent Control
T11 construct: purchased Eurofins DiscoverX KINOMEscan (scanMAX 468)

[13] = molecular target: T12, WNK3 (Homo sapiens, UniProt Q9BYP7); assay: KINOMEscan; type: binding; details: read-out: Percent Control
T12 construct: purchased Eurofins DiscoverX KINOMEscan (scanMAX 468)

[14] = molecular target: T13, AKT2 (Homo sapiens, UniProt P31751); assay: KINOMEscan; type: binding; details: read-out: Percent Control
T13 construct: purchased Eurofins DiscoverX KINOMEscan (scanMAX 468)

[15] = molecular target: T14, PDGFRA (Homo sapiens, UniProt P16234); assay: KINOMEscan; type: binding; details: read-out: Percent Control
T14 construct: purchased Eurofins DiscoverX KINOMEscan (scanMAX 468)
T14 sequence (P16234 24-1089): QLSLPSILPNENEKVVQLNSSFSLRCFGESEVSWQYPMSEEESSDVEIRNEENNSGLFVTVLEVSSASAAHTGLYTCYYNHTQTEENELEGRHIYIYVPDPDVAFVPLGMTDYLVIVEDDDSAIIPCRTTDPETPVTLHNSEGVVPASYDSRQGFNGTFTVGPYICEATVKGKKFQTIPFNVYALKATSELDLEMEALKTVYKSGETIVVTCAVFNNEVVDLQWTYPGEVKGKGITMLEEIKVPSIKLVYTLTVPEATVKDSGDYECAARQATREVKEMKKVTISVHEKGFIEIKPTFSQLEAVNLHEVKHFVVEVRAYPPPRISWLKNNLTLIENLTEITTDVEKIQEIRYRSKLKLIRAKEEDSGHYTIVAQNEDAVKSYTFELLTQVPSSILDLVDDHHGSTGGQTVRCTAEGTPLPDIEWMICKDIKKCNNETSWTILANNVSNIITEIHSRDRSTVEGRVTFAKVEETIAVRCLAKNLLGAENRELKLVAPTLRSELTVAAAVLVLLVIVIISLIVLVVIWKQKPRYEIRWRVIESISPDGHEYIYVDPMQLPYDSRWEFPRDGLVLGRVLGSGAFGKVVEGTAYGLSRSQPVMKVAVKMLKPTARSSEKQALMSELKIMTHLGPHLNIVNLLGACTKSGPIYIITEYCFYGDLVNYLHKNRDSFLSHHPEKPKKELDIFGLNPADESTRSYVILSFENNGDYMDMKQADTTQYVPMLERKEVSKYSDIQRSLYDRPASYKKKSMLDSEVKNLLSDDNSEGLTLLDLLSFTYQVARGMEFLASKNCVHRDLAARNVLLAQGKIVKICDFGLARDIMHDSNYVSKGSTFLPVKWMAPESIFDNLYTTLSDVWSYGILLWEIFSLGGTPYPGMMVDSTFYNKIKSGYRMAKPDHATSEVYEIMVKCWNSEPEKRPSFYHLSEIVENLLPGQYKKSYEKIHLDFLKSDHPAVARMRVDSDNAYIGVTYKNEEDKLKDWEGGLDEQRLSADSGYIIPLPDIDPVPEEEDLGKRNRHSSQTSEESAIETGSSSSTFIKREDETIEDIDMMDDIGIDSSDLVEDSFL

[16] = molecular target: T15, MAP3K2 (Homo sapiens, UniProt Q9Y2U5); assay: KINOMEscan; type: binding; details: read-out: Percent Control
T15 construct: purchased Eurofins DiscoverX KINOMEscan (scanMAX 468)

[17] = molecular target: T16, PRKCD (Homo sapiens, UniProt Q05655); assay: KINOMEscan; type: binding; details: read-out: Percent Control
T16 construct: purchased Eurofins DiscoverX KINOMEscan (scanMAX 468)
T16 sequence (Q05655 whole entry): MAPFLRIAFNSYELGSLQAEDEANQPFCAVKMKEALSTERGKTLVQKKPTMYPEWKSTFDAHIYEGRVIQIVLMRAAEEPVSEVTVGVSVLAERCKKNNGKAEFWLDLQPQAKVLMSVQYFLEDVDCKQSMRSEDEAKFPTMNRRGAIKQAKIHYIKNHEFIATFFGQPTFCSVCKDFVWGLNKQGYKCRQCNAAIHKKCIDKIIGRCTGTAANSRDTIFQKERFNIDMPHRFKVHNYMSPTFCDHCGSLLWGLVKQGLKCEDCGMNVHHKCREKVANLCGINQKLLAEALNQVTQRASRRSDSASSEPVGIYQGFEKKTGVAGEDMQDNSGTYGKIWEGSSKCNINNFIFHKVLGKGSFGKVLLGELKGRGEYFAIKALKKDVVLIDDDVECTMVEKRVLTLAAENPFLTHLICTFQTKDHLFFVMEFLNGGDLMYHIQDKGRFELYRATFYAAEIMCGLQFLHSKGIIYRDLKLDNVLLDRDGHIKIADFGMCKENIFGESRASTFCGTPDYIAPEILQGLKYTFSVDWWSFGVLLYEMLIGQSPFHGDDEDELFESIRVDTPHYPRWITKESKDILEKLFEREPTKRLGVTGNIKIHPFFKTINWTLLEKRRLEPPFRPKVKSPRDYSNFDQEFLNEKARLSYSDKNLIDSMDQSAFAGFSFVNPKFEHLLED

With `Cc1ccc(-n2cc(COc3cccc4cnc(Nc5cc(Cl)cc(Cl)c5)nc34)nn2)c([N+](=O)[O-])c1` [7b, N-(3,5-dichlorophenyl)-8-((1-(4-methyl-2-nitrophenyl)-1H-1,2,3-triazol-4-yl)methoxy)quinazolin-2-amine] the “toxicity towards fibroblasts” value [1] was “non-toxic”, the IC50 [2] was 97 nM and the IC50 ([3]; duplicate) was 380 nM. For the same compound, the IC50 [4] was 3310 nM, the remaining activity at 1 µM [5] was 81% and the remaining activity at 10 µM [5] was 46%. The remaining activity at 1 µM [6] was 85% and the remaining activity at 10 µM [6] was 36%.

With `O=[N+]([O-])c1cc(Br)ccc1-n1cc(COc2cccc3cnc(Nc4cccc(Cl)c4)nc23)nn1` [12d, N-(3-Chlorophenyl)-8-((1-(4-bromo-2-nitrophenyl)-1H-1,2,3-triazol-4-yl)methoxy)quinazolin-2-amine] the “toxicity towards fibroblasts” value [1] was “moderate toxicity”, the remaining activity at 1 µM [5] was 91% and the remaining activity at 10 µM [5] was 95%. For the same compound, the remaining activity at 1 µM [6] was ≥ 100% and the remaining activity at 10 µM [6] was 75%.

`O=[N+]([O-])c1cc(CO)ccc1-n1cc(COc2cccc3cnc(Nc4cccc(Cl)c4)nc23)nn1` [12e, 4-(4-(((2-((3-Chlorophenyl)amino)quinazolin-8-yl)oxy)methyl)-1H-1,2,3-triazol-1-yl)-3-nitrobenzyl alcohol] was tested, and the “toxicity towards fibroblasts” value [1] was “moderate toxicity”, the IC50 [2] was 50 nM and the IC50 [3] was 150 to 200 nM. For the same compound, the IC50 ([3]; duplicate) was 195 nM, the IC50 [4] was 7500 nM and 7490 nM and the remaining activity at 1 µM [5] was 92%. It also gave a remaining activity at 10 µM [5] of 88%, a remaining activity at 1 µM [6] of 99% and a remaining activity at 10 µM [6] of 35%.

With `COC(=O)c1ccc(-n2cc(COc3cccc4cnc(Nc5cccc(Cl)c5)nc34)nn2)c([N+](=O)[O-])c1` [12f, Methyl 4-(4-(((2-((3-chlorophenyl)amino)quinazolin-8-yl)oxy)methyl)-1H-1,2,3-triazol-1-yl)-3-nitrobenzoate] the “toxicity towards fibroblasts” value [1] was “non-active”, the remaining activity at 1 µM [5] was 73% and the remaining activity at 10 µM [5] was 76%. For the same compound, the remaining activity at 1 µM [6] was 99% and the remaining activity at 10 µM [6] was 69%.

`O=C(O)c1ccc(-n2cc(COc3cccc4cnc(Nc5cccc(Cl)c5)nc34)nn2)c([N+](=O)[O-])c1` [12g, 4-(4-(((2-((3-Chlorophenyl)amino)quinazolin-8-yl)oxy)methyl)-1H-1,2,3-triazol-1-yl)-3-nitrobenzoic acid] was tested, and the “toxicity towards fibroblasts” value [1] was “non-active”, the IC50 [2] was 28 nM and the IC50 ([3]; duplicate) was 55 nM. For the same compound, the IC50 [4] was 339 nM, the remaining activity at 1 µM [5] was 75% and the remaining activity at 10 µM [5] was 69%. The remaining activity at 1 µM [6] was 76% and the remaining activity at 10 µM [6] was 19%.

`N[C@H]1CC[C@@H](n2cc(COc3cccc4cnc(Nc5cc(Cl)cc(Cl)c5)nc34)nn2)CC1` [16b, 8-((1-((cis)-4-Aminocyclohexyl)-1H-1,2,3-triazol-4-yl)methoxy)-N-(3,5-dichlorophenyl)quinazolin-2-amine hydrochloride] was tested, and the IC50 [2] was 20 nM, the IC50 ([3]; duplicate) was 83 nM and the IC50 [4] was 3260 nM. It also gave a remaining activity at 1 µM [5] of 76%, a remaining activity at 10 µM [5] of 76% and a remaining activity at 1 µM [6] of 47%. It also gave a remaining activity at 10 µM [6] of 8%.

For `Cc1ccc(-n2cc(COc3cccc4cnc(Nc5cccc(Cl)c5)nc34)nn2)c([N+](=O)[O-])c1` [DB18], the remaining binding at 1 µM [7] was 100%, the remaining binding at 1 µM [8] was 100% and the remaining binding at 1 µM [9] was 100%. For the same compound, the remaining binding at 1 µM [10] was 100%, the remaining binding at 1 µM [11] was 89% and the remaining binding at 1 µM [12] was 97%. For the same compound, the remaining binding at 1 µM [13] was 100%, the remaining binding at 1 µM [14] was 100% and the remaining binding at 1 µM [15] was 100%. For the same compound, the remaining binding at 1 µM [16] was 97% and the remaining binding at 1 µM [17] was 100%.
